Experimental data as given in publication PMC9138545, “Incorporation of Oxidized Phenylalanine Derivatives into Insulin Signaling Relevant Proteins May Link Oxidative Stress to Signaling Conditions Underlying Chronic Insulin Resistance” (Biomedicines, 2022).
Values belong to the compound of their own block, whether it stands above or below them.

Tests used:
acute insulin resistance = settings: ref [6]; cited from earlier work
Description: Acute insulin resistance induced by tumor necrosis factor alpha (TNFα) or dexamethasone could be ameliorated by the antioxidants N-acetylcysteine, manganese (III) tetrakis (4-benzoicacid) porphyrin (MnTBAP), or by induction of antioxidant enzymes such as superoxide dismutase or catalase.

[1] = test system: patients (chronic insulin resistance); settings: chronic antioxidant therapy, e.g., in diabetic neuropathy; ref [7]; cited from earlier work
Description: Moreover, using the so-called “breakthrough” therapy, a 2–4 week decrease in glucotoxicity is able to normalize glycemia by decreasing insulin resistance for months or years. Because clinical insulin resistance can be reverted, it is not an alteration of the DNA, but rather some type of protein abnormality; this can be hypothesized given the background of this oxidative stress-induced clinical condition.

type 2 diabetic patients = settings: ref [40]; cited from earlier work
Description: Elevated levels of m- and/or o-Tyr have been described in the vascular wall of cynomolgus monkeys as well as in cataract lenses.

[2] = molecular target: T1, C-terminal SH2 domain of PI3K regulatory subunit 1 (Homo sapiens, UniProt P27986); assay: Fluorescence polarization binding, PI3K-SH2(C); settings: competitive FP; statement for the SH2 domains
T1 construct: The N- and C-terminal SH2 domains (regions 321–433 and 614–724, respectively) of the PI3K regulatory subunit; hexa-histidine (inferred: expressed and purified like His-tagged PTP1B); made in house; host or cells: Escherichia coli (bacterial expression vector; strain BL21 (DE3) is stated only for PTP1B)
Description: The N- and C-terminal SH2 domains (regions 321–433 and 614–724, respectively) of the PI3K regulatory subunit were subcloned into a bacterial expression vector by PCR and then similarly expressed and purified as described above.
For in vitro fluorescence polarization (FP)-based affinity measurements, a peptide containing the phosphorylated tyrosine residue 632 of human IRS1 was labelled by lys-carboxyfluorescenine at its C-terminal end (GRKGSGD(pY)MPMSPKS(K-FITC). Synthesis of the labelled peptide was done by GenScript Inc. For competitive FP measurements, unlabeled peptides with either natural (para-phospho-Tyr) or unnatural (ortho-phospho-Tyr and meta-phospho-Tyr) phosphorylated amino acids (core sequence GRKGSGD(pY)MPMSPKV in all three cases) were used. Direct titration with the labelled peptide was done by generating a dilution series of the protein (N-terminal and C-terminal SH2 domains of PI3K regulatory subunit 1), with a constant (100 nM) peptide concentration in a standard buffer (100 mM NaCl, 20 mM TRIS pH = 8.0, 0.05% Brij-35 detergent). Competitive titrations were done by keeping the concentration of the protein-labelled peptide mixture constant (150 nM and 1500 nM C-terminal and N-terminal domain, respectively, with 100 nM labelled peptide) and varying the concentration of the unlabeled competitor peptide instead. […]

[3] = test system: human PTP1B catalytic domain (1–299 aa); assay: PTP1B dephosphorylation assay, capillary electrophoresis; format: biochemical; settings: 80 μM phosphopeptide, 25 nM PTP1B, 50 mM TRIS, 150 mM NaCl, 1 mM EDTA, 2 mM DTT, pH 7.4
Protocol: The cDNA segment encoding the human PTP1B catalytic domain (1–299 aa) was PCR amplified from a HEK293T cDNA pool and inserted into the pBH4 vector with BamHI and NotI restriction sites. This construct is only missing the C-terminal flexible region and the membrane binding segment of PTP1B. The protein was expressed with an N-terminal hexa-histidine tag. Recombinant active PTP1B was expressed in the Escherichia coli BL21 (DE3) bacterial strain. Briefly, cells were grown in an ampicillin-containing LB medium at 37 °C to OD = 0.6 and then cooled down to 18 °C and induced by the addition of 0.05 mM isopropyl-beta-D-thiogalactoside (IPTG). After an overnight expression at 18 °C, the pellet was harvested and washed with phosphate buffered saline (PBS). Following freezing at −80 °C, cells were lysed in an appropriate buffer (300 mM NaCl, 50 mM phosphate, 10 mM imidazole, 2 mM beta-mercapto-ethanol, 0.1% IGEPAL with pH = 8.0, and 0.5 mM benzamidine with 0.5 mM PMSF protease inhibitors added) with the help of sonification. The lysate was centrifuged at 20,000 rpm for 30 min and the supernatant (~30 mL) was mixed with 1 mL Ni-NTA resin slurry (50%). After 45 min incubation at 4 °C, the mixture was transferred to gravity columns and washed with 10-10 mL of imidazole (40 mM imidazole, 300 mM NaCl, 50 mM phosphate, pH = 8.0 with 2 mM beta-mercapto-ethanol) and high salt (1000 mM NaCl, 20 mM imidazole, 20 mM TRIS, pH = 8.0 with 2 mM beta-mercapto-ethanol) containing wash buffers, each. PTP1B was eluted by applying 5 mL elution buffer (400 mM imidazole, 200 mM NaCl, 10% glycerol, 20 mM TRIS, pH = 8.0, with 0.1% IGEPAL). The eluted protein was supplemented with tricarboxy-ethyl-phosphine (TCEP) reducing agent at 2 mM concentration.
The Ni-NTA purified PTP1B protein was further purified by anion exchange chromatography. […]
Background electrolyte (BGE) components phosphoric acid and triethylamine were purchased from Sigma (St. Louis, MO, USA) and from Merck GmbH (Darmstadt, Germany), respectively. […] On-line absorption at 200 nm was monitored by DAD UV-Vis detector. […]

T1 sequence (P27986 614-724): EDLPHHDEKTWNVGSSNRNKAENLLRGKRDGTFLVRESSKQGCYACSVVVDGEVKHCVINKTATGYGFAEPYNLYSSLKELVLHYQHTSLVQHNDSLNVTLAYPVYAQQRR

Compound: O=C(O)c1ccc(-c2c3nc(c(-c4ccc(C(=O)O)cc4)c4ccc([n-]4)c(-c4ccc(C(=O)O)cc4)c4nc(c(-c5ccc(C(=O)O)cc5)c5ccc2[n-]5)C=C4)C=C3)cc1.[Mn+3] [MnTBAP, manganese (III) tetrakis (4-benzoicacid) porphyrin]
acute insulin resistance induced by TNFα or dexamethasone (acute insulin resistance): ameliorated

Compound: CC(=O)N[C@@H](CS)C(=O)O [N-acetylcysteine]
acute insulin resistance induced by TNFα or dexamethasone (acute insulin resistance): ameliorated

Compound: O=C(O)CCCCC1CCSS1 (stereo not drawn) [alpha-lipoic acid]
chronic insulin resistance [1]: able to improve chronic insulin resistance

Compound: Oc1ccc(/C=C/c2cc(O)cc(O)c2)cc1 [resveratrol]
insulin resistance (type 2 diabetic patients): improvement in insulin resistance
urinary excretion of o-Tyr (type 2 diabetic patients): decrease in urinary excretion of o-Tyr

binding affinity compared to phospho-para-Tyr peptide (GRKV2), PI3K-SH2(C) [2]: greatly reduced binding affinity
Compound: GRKGSGDF(2-PO4H2)MPMSPKV [GRKV6, phospho-ortho-Tyr containing IRS-1 YXXM motif peptide]
dephosphorylation by PTP1B [3]: incapable of dephosphorylating

binding affinity compared to phospho-para-Tyr peptide (GRKV2), PI3K-SH2(C) [2]: greatly reduced binding affinity
Compound: GRKGSGDF(3-PO4H2)MPMSPKV [GRKV4, phospho-meta-Tyr containing IRS-1 YXXM motif peptide]
dephosphorylation by PTP1B [3]: incapable of dephosphorylating

Compound: GRKGSGDF(4-PO4H2)MPMSPKV [GRKV2, phospho-para-Tyr containing IRS-1 YXXM motif peptide]
dephosphorylation by PTP1B [3]: apart from the p-Tyr peptide, none of the modified Tyr containing peptides could be dephosphorylated by PTP1B
